From patent US20050282743A1, “Molecular interactions in cells” (Arbor Vita Corporation, priority 2001, published 2005)
Peptide text beside a SMILES is read from it. * marks the point of attachment. Biotin = O=C1N[C@H]2[C@H](CS[C@H]2CCCCC(=O)*)N1

What was measured:
Assay in all cases: G' assay (10 uM PL peptide), results of TABLE 7 and TABLE 12
Assay type in all cases: binding
[1] = biological target: T1, PDZ protein (GST-PDZ fusion) (Homo sapiens, UniProt O14908); settings: PDZ TAX IP2, PDZ Domain 1
T1 construct: made in house; host or cells: E. coli (DH5alpha, BL21 or JM109)
T1 sequence (O14908 1-333): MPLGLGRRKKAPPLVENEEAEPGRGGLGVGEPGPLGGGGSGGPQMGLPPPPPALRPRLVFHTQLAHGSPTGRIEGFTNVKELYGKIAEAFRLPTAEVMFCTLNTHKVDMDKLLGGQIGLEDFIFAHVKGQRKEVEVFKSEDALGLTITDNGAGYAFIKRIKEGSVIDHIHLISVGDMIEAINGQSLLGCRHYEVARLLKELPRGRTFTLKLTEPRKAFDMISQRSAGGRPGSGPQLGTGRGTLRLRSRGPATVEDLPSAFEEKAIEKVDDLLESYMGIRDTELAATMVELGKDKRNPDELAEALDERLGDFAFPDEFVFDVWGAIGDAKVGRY
Method in brief: (§1)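 Same steps as the G-zero format, apart from a peptide concentration of 10 uM in place of 20 uM in step 2. Amino-terminally biotinylated PL peptides bind GST-PDZ fusions, and retained peptide is quantified by 450 nm absorbance.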

[2] = biological target: T2, PDZ protein (GST-PDZ fusion) (Homo sapiens, UniProt Q9HD26); settings: PDZ PIST, PDZ Domain 1
T2 construct: made in house; host or cells: E. coli (DH5alpha, BL21 or JM109)
Method in brief: as §1

[3] = biological target: T3, PDZ protein (GST-PDZ fusion) (Homo sapiens, UniProt Q9Y3R0)
T3 construct: made in house; host or cells: E. coli (DH5alpha, BL21 or JM109)
T3 sequence (Q9Y3R0 1-1128): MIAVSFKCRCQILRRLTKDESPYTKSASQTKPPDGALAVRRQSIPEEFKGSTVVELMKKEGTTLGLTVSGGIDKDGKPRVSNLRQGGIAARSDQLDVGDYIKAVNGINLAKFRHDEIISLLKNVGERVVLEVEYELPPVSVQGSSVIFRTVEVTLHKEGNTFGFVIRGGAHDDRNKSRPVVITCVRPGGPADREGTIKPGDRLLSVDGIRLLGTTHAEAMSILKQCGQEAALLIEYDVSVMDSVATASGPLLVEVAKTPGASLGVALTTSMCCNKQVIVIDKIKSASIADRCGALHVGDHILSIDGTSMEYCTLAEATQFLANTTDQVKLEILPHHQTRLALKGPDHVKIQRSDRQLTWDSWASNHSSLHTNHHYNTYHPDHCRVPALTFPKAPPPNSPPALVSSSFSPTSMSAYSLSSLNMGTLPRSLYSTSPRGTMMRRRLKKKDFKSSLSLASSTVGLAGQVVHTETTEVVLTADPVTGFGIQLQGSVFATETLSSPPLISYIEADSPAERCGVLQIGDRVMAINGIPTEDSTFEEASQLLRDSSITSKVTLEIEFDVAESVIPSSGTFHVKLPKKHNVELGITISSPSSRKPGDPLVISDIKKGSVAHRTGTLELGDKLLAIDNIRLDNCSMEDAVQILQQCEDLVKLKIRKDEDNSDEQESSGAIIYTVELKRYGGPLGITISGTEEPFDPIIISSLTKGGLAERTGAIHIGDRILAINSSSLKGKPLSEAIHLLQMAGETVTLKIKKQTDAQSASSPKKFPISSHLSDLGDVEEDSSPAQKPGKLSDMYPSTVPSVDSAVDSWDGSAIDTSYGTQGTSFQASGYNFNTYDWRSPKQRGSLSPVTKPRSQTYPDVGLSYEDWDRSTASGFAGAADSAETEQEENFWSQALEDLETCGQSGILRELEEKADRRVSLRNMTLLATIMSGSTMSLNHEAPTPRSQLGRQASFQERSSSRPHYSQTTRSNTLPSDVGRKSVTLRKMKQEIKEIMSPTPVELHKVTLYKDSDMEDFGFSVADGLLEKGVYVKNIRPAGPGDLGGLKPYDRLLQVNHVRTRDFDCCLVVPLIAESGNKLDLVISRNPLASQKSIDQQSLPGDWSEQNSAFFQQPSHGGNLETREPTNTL
Method in brief: as §1

| Compound | Classification [1] | Classification [2] | Classification ([3]; PDZ GRIP1, PDZ Domain 3) | Classification ([3]; PDZ GRIP1, PDZ Domain 6) |
| --- | --- | --- | --- | --- |
| CSCC[C@H](NC(=O)[C@H](C)NC(=O)[C@H](CCCNC(=N)N)NC(=O)CNC(=O)[C@@H](NC(=O)[C@H](Cc1c[nH]c2ccccc12)NC(=O)[C@H](CCCNC(=N)N)NC(=O)CNC(=O)CCCC[C@@H]1SC[C@@H]2NC(=O)N[C@@H]21)[C@@H](C)O)C(=O)N[C@@H](CO)C(=O)N[C@@H](C)C(=O)N[C@@H](Cc1c[nH]c2ccccc12)C(=O)N[C@@H](CCCCN)C(=O)N1CCC[C@H]1C(=O)N[C@H](C(=O)N[C@@H](CCCNC(=N)N)C(=O)N[C@@H](CCCNC(=N)N)C(=O)N[C@@H](CCC(=O)O)C(=O)N[C@H](C(=O)N[C@@H](CCC(=O)O)C(=O)N[C@H](C(=O)O)C(C)C)[C@@H](C)O)[C@@H](C)O [HPV E6 #35 (modified)] (Biotin-GRWTGRAMSAWKPTRRETEV-OH; C-terminus assumed) | 4 (A450 nm 3-4) | 1 (A450 nm 0-1) | 2 (A450 nm 1-2) | 2 (A450 nm 1-2) |
| CC(C)C[C@H](NC(=O)[C@H](CC(=O)O)NC(=O)[C@H](CO)NC(=O)[C@H](CCC(=O)O)NC(=O)CNC(=O)[C@H](Cc1ccc(O)cc1)NC(=O)[C@H](CC(C)C)NC(=O)[C@H](C)NC(=O)[C@H](CO)NC(=O)[C@H](CO)NC(=O)[C@H](Cc1ccccc1)NC(=O)[C@H](C)NC(=O)[C@H](C)NC(=O)[C@H](Cc1ccc(O)cc1)NC(=O)[C@H](CC(=O)O)NC(=O)[C@H](CC(C)C)NC(=O)[C@H](C)NC(=O)CNC(=O)[C@@H]1CCCN1C(=O)[C@@H](NC(=O)CCCC[C@@H]1SC[C@@H]2NC(=O)N[C@@H]21)C(C)C)C(=O)O [a-actinin 2] (Biotin-VPGALDYAAFSSALYGESDL-OH; C-terminus assumed) | 5 (A450 nm of 4 more than 2× repeated) | – | – | – |
| CC[C@H](C)[C@H](NC(=O)[C@H](CCC(N)=O)NC(=O)CCCC[C@@H]1SC[C@@H]2NC(=O)N[C@@H]21)C(=O)N[C@@H](CO)C(=O)N1CCC[C@H]1C(=O)NCC(=O)NCC(=O)N[C@@H](CC(C)C)C(=O)N[C@@H](CCC(=O)O)C(=O)N1CCC[C@H]1C(=O)N1CCC[C@H]1C(=O)N[C@@H](CO)C(=O)N[C@@H](CCC(=O)O)C(=O)N[C@@H](CCCCN)C(=O)N[C@@H](Cc1c[nH]cn1)C(=O)N[C@@H](Cc1ccccc1)C(=O)N[C@@H](CCCNC(=N)N)C(=O)N[C@@H](CCC(=O)O)C(=O)N[C@H](C(=O)N[C@@H](CCC(=O)O)C(=O)N[C@H](C(=O)O)C(C)C)[C@@H](C)O [Tax] | 2 (A450 nm 1-2) | – | – | – |
